Patent US7879792B2, “Synthetic peptide inhibitors of thrombin and thrombin activation of protease activated receptors 1 and 4” (The Regents of the University of Michigan, priority 2005, dated 2011)
“Also recorded” adds a separate entry of the source. Where a SMILES comes first, the peptide text is derived from it.

What was measured:
[1] = stability testing in MES buffer (pH 6.5); type: physicochemical; conditions: 37° C., read-out: t1/2 (min) MES Buffer (pH 6.5)
Experimental: (§1) Stability testing of the various compounds was performed in buffer, intestinal perfusate, and an intestinal homogenate preparation to assess the potential oral availability of these compounds. Initial studies prepared the tissue for stability studies. The buffer used in stability testing is 10 mM MES (pH 6.5) containing 135 mM NaCl, and 5 mM KCl. To collect intestinal perfusate from rats, male Sprague Dawley rats, 8 to 10 weeks old, weighing 250 to 350 g were fasted 15 to 18 hours with water given ad libitum. Anesthesia was administered by intramuscular injection of pentobarbital/ketamine (40 mg/kg and 80 mg/kg, respectively). The rats were placed on a warming pad under a surgical lamp to maintain body temperature and jejunal intestinal segments were exposed through a midline, abdominal incision. Approximately 20 cm segment of the jejunum (2 to 4 cm distal to the ligament of Treitz) was cannulated and the intestinal segments were perfused with 10 mM MES (pH 6.5) containing 135 mM NaCl, and 5 mM KCl at a flow-rate of 0.5 ml/min at 37° C. using a constant infusion pump (Harvard Apparatus, South Natick, Mass.). The collected perfusate was stored at −80° C. until use for ex vivo stability studies. After collection, the perfused intestinal segments were flushed with ice-cold 0.15 M KCl solution and the animal was euthanized and the jejunal intestinal segment detached. The inner intestinal tissue layers are scraped out and homogenized in MES buffer (pH 6.5) in a ratio of 1 part of intestinal tissue to 5 parts buffer. Total protein content of the perfusate and the homogenate were determined using a Biorad protein assay kit. The intestinal homogenate samples were used immediately or rapidly frozen at −80° C. until stability analysis.
The actual stability testing protocol is as follows: A 0.1 ml aliquot of the synthetic peptide solution (1 mg/ml) was added to 0.9 ml of MES buffer, pH 6.5, intestinal perfusate, or intestinal homogenate at 37° C. Samples were mixed by vortexing and 100 microliter aliquots were removed over a 60 to 90 minute period for analysis of breakdown products. […]

[2] = stability testing in intestinal homogenate; type: in vitro ADME; conditions: rat
Experimental: as §1
The actual stability testing protocol is as follows: A 0.1 ml aliquot of the synthetic peptide solution (1 mg/ml) was added to 0.9 ml of MES buffer, pH 6.5, intestinal perfusate, or intestinal homogenate at 37° C. Samples were mixed by vortexing and 100 microliter aliquots were removed over a 60 to 90 minute period for analysis of breakdown products. The 100 microliter sample aliquots were diluted 10 fold with water and subjected to solid phase extraction using a Waters Oasis HLB column. Briefly, the columns were preconditioned by passing 1 ml of MeOH and 1 ml of water over the column, and 1 ml of sample was added to the column. The column was washed with 5% methanol:95% water solution to remove proteins and salts, then eluted with 1 ml of 100% methanol. The methanol was removed by vacuum, and the sample was reconstituted in mobile phase for LC/MS/MS analysis.
LC/MS/MS analysis was performed on a HP1100 HPLC (Hewlett Packard) interfaced with a Quattro II MS/MS detector (Waters/Micromass). For the HPLC separation, a 10 μL aliquot of sample in a mobile phase consisting of an equal volume mixture of acetonitrile/water containing 0.5% formic acid was injected onto a 150 mm×2.2 mm, 5 μm C8 column (Higgins Analytical Inc) and developed at a flow rate of 0.2 ml/min for 5 minutes. The MS detector was used in single ion recording mode at a cone voltage of 50 Volts.

[3] = system: C57BL6 mice; test: Rose Bengal model for arterial thrombosis, time to carotid artery occlusion; type: in vivo, mouse; conditions: 0.2 to 3.22 mg/kg IP
Source text: C57BL6 mice 6 to 16 weeks of age were anesthetized by intraperitoneal injection with sodium pentobarbital and placed in the supine position on a dissecting microscope (Nikon SMZ-2T, Mager Scientific, Inc., Dexter, Mich.). A midline surgical incision was made to expose the right common carotid artery and a Doppler flow probe (Model 0.5 VB, Transonic Systems, Ithaca, N.Y.) is placed under the vessel. The probe was connected to a flowmeter (Transonic Model T106) and was interpreted with a computerized data acquisition program (Windaq, DATAQ Instruments, Arkron, Ohio). Rose Bengal (4,5,6,7-tetrachloro-3′,6-dihydroxy-2,4,5,7-tetraiodospiro(isobenzofuran-1(3H), 9 [9H] xanthan)-3-1 dipotassium salt) (Fisher Scientific, Fair Lawn, N.J.) at 50 mg/kg in 0.9% saline) was then injected into the tail vein in a 0.12 ml volume (Eitzman et al., Blood 95, 577 (2000)). After injection into the tail vein, a green laser light (Melles Griot, Carlsbad, Calif.) at a wavelength of 540 nm was applied 6 cm from the carotid artery. Flow is monitored continuously from the onset of injury. The time to occlusion was determined only after the vessel remained closed with a cessation of blood flow for 20 min. […] These investigations indicate that these compounds are able to prevent thrombosis in the whole animal in vivo.

| Structure (SMILES) | half-life at 0.1 mg/ml [1] | half-life at 0.1 mg/ml ([2]; male, Sprague Dawley, intestinal homogenate, pH 6.5, 37° C., read-out: t1/2 (min) Intestinal Homogenate) | stability in intestinal homogenate (FIG. 12) [2] | time to occlusion of the mouse right carotid artery [3] |
| --- | --- | --- | --- | --- |
| N=C(N)NCCC[C@@H](N)C(=O)N1[C@H](C(=O)N2CCC[C@H]2C(=O)NCC(=O)N[C@@H](Cc2ccccc2)C(N)=O)C[C@@H]2CCCC[C@@H]21 [rOicPGF, D-Arg-Oic-Pro-Gly-Phe, reference compound] (HELM PEPTIDE1{[dR].[O=C([C@@H]1C[C@@H]2CCCC[C@@H]2N1[*:1])[*:2]].P.G.F.[am]}$$$$V2.0) | 179 min | 40.3 min | less stable | – |
| Cc1ccc(C[C@H](NC(=O)[C@@H](C)NC(=O)[C@@H]2CCCN2C(=O)[C@@H]2C[C@@H]3CCCC[C@@H]3N2C(=O)[C@H](N)CCCNC(=N)N)C(N)=O)cc1 [rOicPaF(p-Me), D-Arg-Oic-Pro-D-Ala-Phe(p-Me)] (HELM PEPTIDE1{[dR].[O=C([C@@H]1C[C@@H]2CCCC[C@@H]2N1[*:1])[*:2]].P.[dA].[Cc1ccc(C[C@H](N[*:1])C(=O)[*:2])cc1].[am]}$$$$V2.0) | – | – | – | significant prolongation; also recorded: progressively prolonged |
